Experiments:
[1] = tested on: Avena fatua, Bromus inermis, Matricaria chamomilla, Matricaria inodora; assay: greenhouse post-emergence herbicidal test, harmful plants; type: in vivo; details: application rate 125 or 62.5 g/ha a.s., 2 to 4 weeks
Method: (§1) The seeds of the test plants were sown separately for each species. For the post-emergence treatment, the test plants were grown to a plant height of from 3 to 15 cm, depending on the plant habit, and only then treated with the active ingredients which had been suspended or emulsified in water. To this end, the test plants were either sown directly and grown in the same containers, or they were first grown separately as seedlings and transplanted into the test containers a few days prior to treatment. The rate of application for the post-emergence treatment was 125 or 62.5 g/ha a.s. (active substance). Depending on the species, the plants were kept at from 10 to 25° C. and 20 to 35° C., respectively. The test period extended over 2 to 4 weeks. During this time, the plants were tended, and their response to the individual treatments was evaluated. Evaluation was carried out using a scale of from 0 to 100. 100 means no emergence of the plants, or complete destruction of at least the aerial parts, and 0 means no damage or normal course of growth. The plants used in the greenhouse experiments belonged to the following species: [table]

spring wheat = assay: greenhouse post-emergence test, crop plant compatibility; type: in vivo, Tritricum aestivum; details: application rate 125 or 62.5 g/ha a.s., 2 to 4 weeks
Method: as §1

Compound | herbicidal activity against the abovementioned harmful plants [1] | compatibility with / damage in the crop plant spring wheat (spring wheat) | melting point [°C]
Cc1cc(-c2c(S(C)(=O)=O)ccc(C(=O)c3cnn(C)c3O)c2C)on1 [A] | weaker herbicidal activity | caused damage | –
CC1=NOC(c2c(S(C)(=O)=O)ccc(C(=O)c3cnn(C)c3O)c2Cl)C1 (stereo not shown) [Compound 2.8, 4-[2-Chloro-3-(3-methyl-4,5-dihydroisoxazol-5-yl)-4-methyl-sulfonylbenzoyl]-5-hydroxy-1-methyl-1H-pyrazole] | – | – | > 215
CC1=NOC(c2c(S(C)(=O)=O)ccc(C(=O)c3cnn(C4CC4)c3O)c2Cl)C1 (stereo not shown) [Compound 2.36, 4-[2-Chloro-3-(3-methyl-4 , 5-dihydroisoxazol-5-yl)-4-methyl-sulfonylbenzoyl]-5-hydroxy-1-cyclopropyl-1H-pyrazole] | – | – | > 220

Reference: patent US20030100590A1, “3-(4,5-dihydroisoxazol-5-yl)benzoylpyrazole” (priority 1999, published 2003)
